Test results published in publication PMC7224190, “Pharmacological inhibition of PRMT7 links arginine monomethylation to the cellular stress response” (Nature Communications, 2020).

Experiments:
Test in all cases: biochemical
Design in all cases: radiometric methyltransferase selectivity assay with tritiated SAM, per cent activity
Conditions in all cases: read-out: % of control remaining
[1] = biological target: METTL3-14 (Homo sapiens, UniProt Q86U44)
Outline: (§1)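 Radiometric methyltransferase assays with ³H-SAM and substrate near apparent Km, compound tested at 1 and 10 μM. Methyl incorporation into biotinylated substrate read by scintillation proximity after guanidine quench; no-compound = 100%, no-enzyme = 0% activity.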

[2] = biological target: T1, MLL1 (Homo sapiens, UniProt Q03164)
T1 construct: gene KMT2A
Outline: as §1

[3] = biological target: T2, NSD3 (Homo sapiens, UniProt Q9BZ95)
T2 sequence (Q9BZ95 1-1437): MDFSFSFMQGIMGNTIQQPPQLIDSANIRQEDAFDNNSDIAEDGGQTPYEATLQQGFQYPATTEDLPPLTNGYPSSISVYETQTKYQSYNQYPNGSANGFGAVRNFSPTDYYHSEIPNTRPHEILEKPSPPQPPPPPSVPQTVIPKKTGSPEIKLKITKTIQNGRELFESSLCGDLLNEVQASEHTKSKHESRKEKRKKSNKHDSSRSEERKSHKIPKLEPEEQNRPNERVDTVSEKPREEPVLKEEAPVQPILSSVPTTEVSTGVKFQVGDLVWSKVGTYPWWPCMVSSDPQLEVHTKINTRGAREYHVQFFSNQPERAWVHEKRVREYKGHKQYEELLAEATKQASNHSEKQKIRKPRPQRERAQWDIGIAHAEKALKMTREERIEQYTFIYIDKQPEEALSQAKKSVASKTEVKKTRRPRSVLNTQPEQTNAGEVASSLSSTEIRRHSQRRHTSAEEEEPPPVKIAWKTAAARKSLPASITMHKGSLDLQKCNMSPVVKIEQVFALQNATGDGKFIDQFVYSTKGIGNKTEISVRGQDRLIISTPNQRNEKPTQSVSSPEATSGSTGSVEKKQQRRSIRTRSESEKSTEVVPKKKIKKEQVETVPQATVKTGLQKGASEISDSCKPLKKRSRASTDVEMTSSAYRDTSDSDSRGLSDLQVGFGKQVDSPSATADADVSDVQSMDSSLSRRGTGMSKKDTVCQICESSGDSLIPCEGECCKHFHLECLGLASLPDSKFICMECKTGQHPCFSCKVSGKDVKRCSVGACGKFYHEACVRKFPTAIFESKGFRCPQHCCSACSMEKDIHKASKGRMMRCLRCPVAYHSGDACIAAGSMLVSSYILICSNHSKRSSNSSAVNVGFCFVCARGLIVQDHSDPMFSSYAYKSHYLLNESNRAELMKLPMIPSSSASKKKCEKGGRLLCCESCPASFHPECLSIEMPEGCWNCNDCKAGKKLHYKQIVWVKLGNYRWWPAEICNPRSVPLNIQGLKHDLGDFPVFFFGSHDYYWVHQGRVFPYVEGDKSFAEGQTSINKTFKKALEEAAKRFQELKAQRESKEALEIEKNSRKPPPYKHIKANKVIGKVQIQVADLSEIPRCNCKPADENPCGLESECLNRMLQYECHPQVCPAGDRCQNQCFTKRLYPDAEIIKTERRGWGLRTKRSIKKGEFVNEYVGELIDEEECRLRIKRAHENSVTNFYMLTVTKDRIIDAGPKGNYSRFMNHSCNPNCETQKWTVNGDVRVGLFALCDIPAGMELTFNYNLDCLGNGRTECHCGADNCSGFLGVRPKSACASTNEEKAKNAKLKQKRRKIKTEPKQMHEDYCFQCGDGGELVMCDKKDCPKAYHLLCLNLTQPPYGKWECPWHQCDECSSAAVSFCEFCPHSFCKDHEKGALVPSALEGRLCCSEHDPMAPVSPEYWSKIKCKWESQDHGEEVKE
Outline: as §1

[4] = biological target: PRMT3 (Homo sapiens, UniProt O60678)
Outline: as §1

[5] = biological target: SETD2 (Homo sapiens, UniProt Q9BYW2)
Outline: as §1

Sequence of SETD2 (Q9BYW2 whole entry): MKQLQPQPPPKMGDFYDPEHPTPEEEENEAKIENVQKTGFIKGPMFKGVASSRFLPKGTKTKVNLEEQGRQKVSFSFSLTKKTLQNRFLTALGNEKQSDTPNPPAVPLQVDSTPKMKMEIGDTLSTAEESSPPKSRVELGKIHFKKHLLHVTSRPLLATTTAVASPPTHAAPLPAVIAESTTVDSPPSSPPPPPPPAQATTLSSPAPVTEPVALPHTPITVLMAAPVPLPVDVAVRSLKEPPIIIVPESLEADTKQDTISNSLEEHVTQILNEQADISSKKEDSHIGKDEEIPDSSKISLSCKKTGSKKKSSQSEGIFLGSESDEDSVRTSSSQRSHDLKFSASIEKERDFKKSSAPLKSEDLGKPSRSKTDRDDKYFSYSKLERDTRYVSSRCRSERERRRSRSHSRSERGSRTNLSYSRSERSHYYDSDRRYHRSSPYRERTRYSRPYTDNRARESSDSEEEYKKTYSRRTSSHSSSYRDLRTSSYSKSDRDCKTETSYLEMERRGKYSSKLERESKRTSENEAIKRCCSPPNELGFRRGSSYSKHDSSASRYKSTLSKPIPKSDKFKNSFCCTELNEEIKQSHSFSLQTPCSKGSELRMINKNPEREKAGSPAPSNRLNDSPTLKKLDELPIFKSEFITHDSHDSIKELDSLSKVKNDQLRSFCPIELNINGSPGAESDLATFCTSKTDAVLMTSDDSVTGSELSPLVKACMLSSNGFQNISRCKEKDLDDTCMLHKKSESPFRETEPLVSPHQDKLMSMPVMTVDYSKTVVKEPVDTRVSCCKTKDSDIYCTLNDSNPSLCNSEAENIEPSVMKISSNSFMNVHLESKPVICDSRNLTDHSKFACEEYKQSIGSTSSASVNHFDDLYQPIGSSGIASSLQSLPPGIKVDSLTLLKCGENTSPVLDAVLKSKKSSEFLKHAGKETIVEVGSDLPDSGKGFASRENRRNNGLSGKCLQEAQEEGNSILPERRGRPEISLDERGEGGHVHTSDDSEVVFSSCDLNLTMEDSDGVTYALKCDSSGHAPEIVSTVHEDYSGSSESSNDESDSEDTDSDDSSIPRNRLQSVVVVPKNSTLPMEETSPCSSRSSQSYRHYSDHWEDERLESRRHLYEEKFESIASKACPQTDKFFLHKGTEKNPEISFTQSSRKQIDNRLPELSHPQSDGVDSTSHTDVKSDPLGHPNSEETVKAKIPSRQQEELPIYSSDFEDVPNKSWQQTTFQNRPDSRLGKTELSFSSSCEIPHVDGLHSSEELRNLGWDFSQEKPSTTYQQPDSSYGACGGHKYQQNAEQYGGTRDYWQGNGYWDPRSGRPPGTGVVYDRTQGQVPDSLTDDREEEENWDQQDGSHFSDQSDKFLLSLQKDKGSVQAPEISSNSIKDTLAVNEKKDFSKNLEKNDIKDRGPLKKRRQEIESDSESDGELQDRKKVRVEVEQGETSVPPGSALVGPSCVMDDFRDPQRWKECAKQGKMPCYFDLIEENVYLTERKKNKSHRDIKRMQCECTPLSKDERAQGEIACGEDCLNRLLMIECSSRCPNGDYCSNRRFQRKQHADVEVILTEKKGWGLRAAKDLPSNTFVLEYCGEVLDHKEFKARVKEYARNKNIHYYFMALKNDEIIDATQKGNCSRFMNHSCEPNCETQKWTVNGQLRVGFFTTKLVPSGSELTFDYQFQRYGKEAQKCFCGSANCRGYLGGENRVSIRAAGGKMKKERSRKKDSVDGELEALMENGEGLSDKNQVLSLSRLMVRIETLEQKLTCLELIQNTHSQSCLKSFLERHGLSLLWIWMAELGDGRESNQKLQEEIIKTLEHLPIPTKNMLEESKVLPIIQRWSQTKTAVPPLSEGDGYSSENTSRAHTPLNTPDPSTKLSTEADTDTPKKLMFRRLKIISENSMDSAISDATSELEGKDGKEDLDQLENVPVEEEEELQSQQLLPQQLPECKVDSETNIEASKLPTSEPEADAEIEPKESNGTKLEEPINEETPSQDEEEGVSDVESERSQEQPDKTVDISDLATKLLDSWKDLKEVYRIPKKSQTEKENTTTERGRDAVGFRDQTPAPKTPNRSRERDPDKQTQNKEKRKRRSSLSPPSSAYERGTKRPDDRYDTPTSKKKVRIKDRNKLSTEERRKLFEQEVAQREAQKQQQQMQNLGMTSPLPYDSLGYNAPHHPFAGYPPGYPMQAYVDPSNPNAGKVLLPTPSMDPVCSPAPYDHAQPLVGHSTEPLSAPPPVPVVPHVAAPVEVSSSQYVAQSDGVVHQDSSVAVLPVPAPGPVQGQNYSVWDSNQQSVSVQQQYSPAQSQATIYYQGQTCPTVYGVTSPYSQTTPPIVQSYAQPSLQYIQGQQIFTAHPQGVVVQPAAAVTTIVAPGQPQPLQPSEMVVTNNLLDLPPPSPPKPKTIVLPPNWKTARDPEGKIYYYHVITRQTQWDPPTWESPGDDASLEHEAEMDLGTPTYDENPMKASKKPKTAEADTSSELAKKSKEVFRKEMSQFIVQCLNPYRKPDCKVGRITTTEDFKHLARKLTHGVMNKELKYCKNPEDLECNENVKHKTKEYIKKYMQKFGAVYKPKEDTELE
Sequence of METTL3-14 (Q86U44 whole entry): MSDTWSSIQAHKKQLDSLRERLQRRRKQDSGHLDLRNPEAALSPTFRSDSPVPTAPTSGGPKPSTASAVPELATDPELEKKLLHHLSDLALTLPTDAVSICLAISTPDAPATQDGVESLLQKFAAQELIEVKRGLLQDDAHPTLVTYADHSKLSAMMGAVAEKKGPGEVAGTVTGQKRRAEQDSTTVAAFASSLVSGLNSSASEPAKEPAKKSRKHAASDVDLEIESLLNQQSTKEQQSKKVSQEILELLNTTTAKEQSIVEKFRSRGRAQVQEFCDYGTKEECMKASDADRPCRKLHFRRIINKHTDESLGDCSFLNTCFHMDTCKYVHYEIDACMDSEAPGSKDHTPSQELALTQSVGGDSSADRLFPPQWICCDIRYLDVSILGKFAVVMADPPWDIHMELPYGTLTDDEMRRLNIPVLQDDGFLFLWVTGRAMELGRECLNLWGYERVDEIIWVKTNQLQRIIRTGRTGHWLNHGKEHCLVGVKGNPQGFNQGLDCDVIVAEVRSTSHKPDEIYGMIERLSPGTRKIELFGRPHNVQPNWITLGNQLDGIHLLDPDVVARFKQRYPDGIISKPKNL
Sequence of METTL3-14 (Q9HCE5 whole entry partner): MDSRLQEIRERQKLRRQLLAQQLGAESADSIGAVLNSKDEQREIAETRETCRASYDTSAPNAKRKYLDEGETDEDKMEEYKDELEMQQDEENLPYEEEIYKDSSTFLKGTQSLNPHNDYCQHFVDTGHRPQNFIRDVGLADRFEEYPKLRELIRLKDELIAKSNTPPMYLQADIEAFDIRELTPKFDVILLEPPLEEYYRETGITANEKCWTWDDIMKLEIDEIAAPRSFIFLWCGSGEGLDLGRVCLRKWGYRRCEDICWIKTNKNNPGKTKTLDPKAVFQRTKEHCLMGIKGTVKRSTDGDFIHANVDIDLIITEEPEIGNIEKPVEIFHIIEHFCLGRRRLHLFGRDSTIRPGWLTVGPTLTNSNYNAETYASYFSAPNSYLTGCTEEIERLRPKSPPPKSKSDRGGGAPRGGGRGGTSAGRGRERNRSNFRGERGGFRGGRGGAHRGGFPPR
Sequence of PRMT3 (O60678 whole entry): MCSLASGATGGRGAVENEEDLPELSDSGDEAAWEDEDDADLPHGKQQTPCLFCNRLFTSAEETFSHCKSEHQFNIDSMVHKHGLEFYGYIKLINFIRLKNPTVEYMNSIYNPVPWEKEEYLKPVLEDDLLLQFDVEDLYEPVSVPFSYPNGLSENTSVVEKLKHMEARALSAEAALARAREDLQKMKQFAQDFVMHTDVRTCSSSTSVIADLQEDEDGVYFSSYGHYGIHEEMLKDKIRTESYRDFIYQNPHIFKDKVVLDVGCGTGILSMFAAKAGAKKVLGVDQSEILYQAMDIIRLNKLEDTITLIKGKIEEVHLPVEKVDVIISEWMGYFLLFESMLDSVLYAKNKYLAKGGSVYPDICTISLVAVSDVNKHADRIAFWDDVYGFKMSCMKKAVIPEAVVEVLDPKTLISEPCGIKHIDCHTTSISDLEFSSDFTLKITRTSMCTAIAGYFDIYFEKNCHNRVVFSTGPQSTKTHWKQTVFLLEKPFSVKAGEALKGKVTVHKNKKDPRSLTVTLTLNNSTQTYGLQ

Nc1ncnc2c1ncn2[C@@H]1O[C@H](CSCCCCNCc2cccc(-c3ccc(Cl)cc3)c2)[C@@H](O)[C@H]1O [SGC8158]
remaining activity at 1 µM [1]: 97% | remaining activity at 10 µM [1]: 84% | remaining activity at 1 µM [2]: 106% | remaining activity at 10 µM [2]: 99% | remaining activity at 1 µM [3]: 97% | remaining activity at 10 µM [3]: 95% | remaining activity at 1 µM [4]: 57% | remaining activity at 10 µM [4]: 6% | remaining activity at 1 µM [5]: 95% | remaining activity at 10 µM [5]: 86%

CC1(C)O[C@@H]2[C@H](O1)[C@@H](CSCCCCNCc1cccc(-c3ccc(Cl)cc3)c1)O[C@H]2n1cnc2c(N)ncnc21 [SGC8158N]
remaining activity at 1 µM [1]: 87% | remaining activity at 10 µM [1]: 73% | remaining activity at 1 µM [2]: 101% | remaining activity at 10 µM [2]: 98% | remaining activity at 1 µM [3]: 100% | remaining activity at 10 µM [3]: 97% | remaining activity at 1 µM [4]: 96% | remaining activity at 10 µM [4]: 96% | remaining activity at 1 µM [5]: 103% | remaining activity at 10 µM [5]: 97%
